Laboratory results published in ChEMBL document CHEMBL1132772, “NMR line-broadening and transferred NOESY as a medicinal chemistry tool for studying inhibitors of the hepatitis C virus NS3 protease domain” (Bioorg Med Chem Lett, 2000).
Starred links: 1 amine or outer side, 2 acyl side, 3 side chain; linkers in the order of their positions; H or OH if unused. Non-standard residues stand in square brackets, D forms with d. Residues, ends and D or L forms follow the SMILES beside them. *: point of attachment. CH2(1-naphthyl) = c1ccc2c(C*)cccc2c1; Hyp = O=C(O)[C@@H]1C[C@@H](O)CN1; Suc = O=C(CCC(=O)[*:2])[*:1]; Nva = CCC[C@H](N)C(=O)O; Ac3c = NC1(C(=O)O)CC1

Target: NS3 (Hepatitis C virus, UniProt A3EZJ3)
Sequence (A3EZJ3 whole entry): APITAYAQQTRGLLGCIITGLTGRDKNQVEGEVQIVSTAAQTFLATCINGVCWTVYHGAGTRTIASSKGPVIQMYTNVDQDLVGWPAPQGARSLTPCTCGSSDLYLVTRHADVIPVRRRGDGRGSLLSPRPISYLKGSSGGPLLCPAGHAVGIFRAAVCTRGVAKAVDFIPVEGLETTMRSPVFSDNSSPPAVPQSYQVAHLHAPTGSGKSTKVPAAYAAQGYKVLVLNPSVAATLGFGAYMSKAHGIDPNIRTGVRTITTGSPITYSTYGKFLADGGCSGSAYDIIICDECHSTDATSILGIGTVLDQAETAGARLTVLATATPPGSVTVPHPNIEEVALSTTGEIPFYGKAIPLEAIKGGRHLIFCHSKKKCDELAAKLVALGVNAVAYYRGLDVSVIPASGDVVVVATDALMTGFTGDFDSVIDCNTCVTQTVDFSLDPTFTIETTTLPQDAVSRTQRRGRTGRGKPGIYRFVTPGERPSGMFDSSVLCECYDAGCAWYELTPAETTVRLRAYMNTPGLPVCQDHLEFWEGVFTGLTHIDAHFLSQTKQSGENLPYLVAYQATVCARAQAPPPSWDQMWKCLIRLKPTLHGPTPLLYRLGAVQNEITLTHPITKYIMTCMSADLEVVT
Assay: Inhibitory concentration required against NS3 Protease of Hepatitis C Virus
Design: species or system Hepacivirus hominis

SMILES	IC50 [µM]
CCC[C@H](NC(=O)[C@@H]1C[C@@H](OCc2cccc3ccccc23)CN1C(=O)[C@@H](NC(=O)[C@@H](NC(=O)CCC(=O)O)[C@@H](C)CC)C(C)C)C(=O)O (Suc-IV[Hyp](CH2(1-naphthyl))[Nva]-OH)	22
CC[C@H](C)[C@H](NC(=O)CCC(=O)O)C(=O)N[C@H](C(=O)N1C[C@H](OCc2cccc3ccccc23)C[C@H]1C(=O)NC1(C(=O)O)CC1)C(C)C (Suc-IV[Hyp](CH2(1-naphthyl))[Ac3c]-OH)	5.5
